The target of one assay is T1, hTRPA1 (Homo sapiens, UniProt O75762, K186N).
T1 construct: expressed in transfected cells; host or cells: HEK293/TREx (Invitrogen), induced with tetracycline
T1 sequence (O75762 whole entry K186N): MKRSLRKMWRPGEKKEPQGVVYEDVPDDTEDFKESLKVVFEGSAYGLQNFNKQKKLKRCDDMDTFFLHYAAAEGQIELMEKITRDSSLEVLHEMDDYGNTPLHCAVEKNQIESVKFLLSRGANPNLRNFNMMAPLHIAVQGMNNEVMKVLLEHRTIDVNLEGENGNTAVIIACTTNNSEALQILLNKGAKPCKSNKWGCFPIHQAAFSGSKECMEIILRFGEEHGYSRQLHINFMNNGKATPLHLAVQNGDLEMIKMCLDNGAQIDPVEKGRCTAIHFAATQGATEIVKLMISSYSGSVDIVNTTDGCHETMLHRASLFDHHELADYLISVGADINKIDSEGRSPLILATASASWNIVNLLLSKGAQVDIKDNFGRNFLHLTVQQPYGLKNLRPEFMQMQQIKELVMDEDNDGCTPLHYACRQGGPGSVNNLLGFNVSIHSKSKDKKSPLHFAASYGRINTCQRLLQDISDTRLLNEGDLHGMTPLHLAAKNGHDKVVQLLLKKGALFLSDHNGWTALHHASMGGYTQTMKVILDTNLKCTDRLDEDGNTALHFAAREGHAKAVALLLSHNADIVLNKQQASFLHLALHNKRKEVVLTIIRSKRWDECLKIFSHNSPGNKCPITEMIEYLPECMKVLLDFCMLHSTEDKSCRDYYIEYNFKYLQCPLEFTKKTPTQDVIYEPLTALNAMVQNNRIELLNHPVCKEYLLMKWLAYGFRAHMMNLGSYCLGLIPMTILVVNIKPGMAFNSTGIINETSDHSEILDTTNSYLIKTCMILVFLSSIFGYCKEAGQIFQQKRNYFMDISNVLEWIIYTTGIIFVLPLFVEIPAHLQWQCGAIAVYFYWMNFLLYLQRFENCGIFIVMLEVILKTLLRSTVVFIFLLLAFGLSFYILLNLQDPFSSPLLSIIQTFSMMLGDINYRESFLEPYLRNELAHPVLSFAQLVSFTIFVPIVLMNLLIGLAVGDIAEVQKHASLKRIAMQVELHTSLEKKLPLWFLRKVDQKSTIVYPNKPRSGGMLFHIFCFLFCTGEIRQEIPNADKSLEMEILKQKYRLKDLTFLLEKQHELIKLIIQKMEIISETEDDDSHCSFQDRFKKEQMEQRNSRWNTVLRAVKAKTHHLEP
Description: High throughput Ca2+ fluorescence (Fluo4) assay, AITC stimulation. In kind it is cell-based. As to conditions: Table 1; read-out: hTRPA1 Fluo4 IC50. The procedure, abridged:
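Read-out is Fluo4 fluorescence, proportional to [Ca2+]i, over ~3 min after AITC challenge, following 2 min compound pre-exposure in HEK293/TREx cells induced with 1 μg/ml tetracycline. Dye: 1 μM, 60 min, room temperature.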
As a reminder, the IC50 is the concentration at which inhibition is half-maximal. As for `CC1=C(C(=O)N2CCOCC2)C(c2ccc(F)cc2)NC(=O)N1` (centres unmarked), the IC50 is > 10 µM.

As to `COC(=O)C1=C(C)NC(=S)NC1c1cc(OC)ccc1Br` (centres unmarked), the half-inhibitory concentration (IC50) was ≤ 5 µM. Same read-out and setting: to `CCC(C)OC(=O)C1=C(C)NC(=O)NC1c1ccc(F)c(Br)c1` (centres unmarked) belongs > 10 µM. `C=CCOC(=O)C1=C(C)NC(=S)NC1c1ccccc1F` (centres unmarked): the half-inhibitory concentration (IC50) is > 10 µM. The same measure, in the same setting: to `CCCCOC(=O)C1=C(C)NC(=O)NC1c1ccc(C)cc1` (centres unmarked) belongs > 10 µM.

In the case of `CSc1ccc(C2NC(=O)NC(C)=C2C(=O)OCc2ccccc2)cc1` (centres unmarked), the half-maximal inhibitory concentration (IC50) is > 10 µM. As to `CC1=C(C(=O)OC(C)C)C(c2ccc(F)c(Br)c2)NC(=O)N1` (centres unmarked), the IC50 is > 10 µM.

On to `CC1=C(C(=O)N(C)C)C(c2c(F)cccc2Cl)NC(=S)N1` (centres unmarked), for which the IC50 is > 10 µM. Same read-out and setting: next, `CC1=C(C(=O)OCc2ccccc2)C(c2ccccc2F)NC(=O)N1` (centres unmarked): > 10 µM; `CC1=C(C(=O)OCC(Cl)(Cl)Cl)C(c2ccccc2)NC(=O)N1` (centres unmarked): > 10 µM. Still for that read-out and setting: to `COC(=O)C1=C(C)NC(=S)NC1c1ccccc1OC(C)C` (centres unmarked) belongs > 10 µM; to `C=CCOC(=O)C1=C(C)NC(=O)NC1c1c(F)cccc1Cl` (centres unmarked), > 10 µM.

On to `CC1=C(C(=O)OC(C)(C)C)C(c2ccccc2Cl)NC(=O)N1` (centres unmarked), for which the half-inhibitory concentration (IC50) was > 10 µM. With `COC(=O)C1=C(C)N(C)C(=S)NC1c1ccc(OC)cc1` (centres unmarked), the IC50 is ≥ 30 µM. As to `CCN(CC)C(=O)C1=C(C)NC(=S)NC1c1ccccc1` (centres unmarked), the IC50 is > 10 µM. Regarding `CCN(CC)C(=O)C1=C(C)NC(=S)NC1c1cc(C)c(OC)cc1C` (centres unmarked), the IC50 was > 10 µM.

For `CC1=C(C(=O)OC2CCC(C)CC2)C(c2ccc(N(C)C)cc2)NC(=O)N1` (centres unmarked), the IC50 is > 10 µM.

Take `COC(=O)C1=C(CN2CCN(C)CC2)NC(=O)NC1c1cc(C)ccc1C` (centres unmarked): the IC50 is > 10 µM. With `COC(=O)C1=C(C)N(C)C(=O)NC1c1cccc(C)c1` (centres unmarked), the IC50 is > 10 µM. For `CCOC(=O)C1=C(CN2CCc3ccccc32)NC(=O)NC1c1cc(C)ccc1C` (centres unmarked), the half-inhibitory concentration (IC50) was > 10 µM. As to `CCC(C)OC(=O)C1=C(C)NC(=O)NC1c1ccccc1Cl` (centres unmarked), the IC50 was > 10 µM. Consider `CC1=C(C(=O)OCc2ccc(C)cc2)C(c2ccc(N(C)C)cc2)NC(=O)N1` (centres unmarked), for which the 50% inhibitory concentration (IC50) is > 10 µM. Same read-out and setting: next, `COC(=O)C1=C(C)NC(=O)NC1c1ccc(O)c(OC)c1` (centres unmarked): > 10 µM; `CCOC(=O)C1=C(c2ccccc2)NC(=S)NC1c1cccc(OC)c1OC` (centres unmarked): > 10 µM. As to `COC(=O)C1=C(C)N(C)C(=S)NC1c1cccc(Cl)c1Cl` (centres unmarked), the IC50 was ≤ 5 µM.

`CCOC(=O)C1=C(C)NC(=S)NC1c1ccc(O)cc1` (centres unmarked): the half-maximal inhibitory concentration (IC50) is > 10 µM. `CCOC(=O)C1=C(c2ccccc2)NC(=O)NC1c1ccccc1Cl` (centres unmarked): the IC50 was > 10 µM. For `C=CCOC(=O)C1=C(C)NC(=O)NC1c1ccc(C)cc1` (centres unmarked), the half-maximal inhibitory concentration (IC50) was ≤ 5 µM. With `CCOC(=O)C1=C(CN2CCN(C)CC2)NC(=O)NC1c1cc(C)ccc1C` (centres unmarked), the IC50 was > 10 µM.

In the case of `CC1=C(C(=O)OCc2ccc(C)cc2)C(c2ccc(F)cc2)NC(=O)N1` (centres unmarked), the IC50 was > 10 µM.

In the case of `CCCC1=C(C(=O)OCC)C(c2ccc(C(F)(F)F)cc2)NC(=O)N1C` (centres unmarked), the concentration for half-maximal inhibition (IC50) is > 10 µM. Regarding `CC1=C(C(=O)OCc2ccc(C)cc2)C(c2ccccc2)NC(=O)N1` (centres unmarked), the IC50 was > 10 µM. Consider `CC1=C(C(=O)OC(C)C)C(c2ccc(Cl)cc2)NC(=O)N1` (centres unmarked), for which the IC50 is > 10 µM.

In the case of `CC1=C(C(=O)OC(C)(C)C)C(c2cccc(Cl)c2)NC(=O)N1` (centres unmarked), the 50% inhibitory concentration (IC50) is > 10 µM. Consider `COCCOC(=O)C1=C(C)NC(=S)NC1c1ccc(Br)cc1` (centres unmarked), for which the 50% inhibitory concentration (IC50) is > 10 µM. With `CCOC(=O)C1=C(CN2CCc3ccccc32)NC(=O)NC1c1ccc(Cl)cc1` (centres unmarked), the IC50 is ≤ 10 µM. As to `CCOC(=O)C1=C(c2ccccc2)N(C)C(=O)NC1c1ccccc1F` (centres unmarked), the concentration for half-maximal inhibition (IC50) was > 10 µM. For `CCOC(=O)C1=C(C)NC(=S)NC1c1ccc(OC)c(OC)c1` (centres unmarked), the IC50 is > 10 µM. As for `COC(=O)C1=C(C)NC(=O)NC1c1ccccc1OC` (centres unmarked), the IC50 is > 10 µM.

As to `COC(=O)C1=C(C)NC(=O)NC1c1cc(C)ccc1C` (centres unmarked), the concentration for half-maximal inhibition (IC50) is > 10 µM. For the molecule `CCOC(=O)C1=C(CN2CCN(C)CC2)NC(=O)NC1c1ccc(Cl)cc1` (centres unmarked), the IC50 was > 10 µM. For `CCOC(=O)C1=C(C)NC(=O)NC1c1ccc(SC)cc1` (centres unmarked), the IC50 is > 10 µM. Take `COC(=O)C1=C(C)N(C)C(=S)NC1c1ccccc1OC` (centres unmarked): the IC50 was > 10 µM. In the case of `CCCC1=C(C(=O)OCC)C(c2ccc(CC)cc2)NC(=O)N1` (centres unmarked), the 50% inhibitory concentration (IC50) is > 10 µM. The same measure, in the same setting: to `COC(=O)C1=C(C)N(C)C(=O)NC1c1cccc(Cl)c1` (centres unmarked) belongs > 10 µM.

Consider `COCCOC(=O)C1=C(C)NC(=S)NC1c1ccc(C(C)C)cc1` (centres unmarked), for which the half-maximal inhibitory concentration (IC50) is > 10 µM. Same read-out and setting: next, `CCc1ccc(C2NC(=O)NC(C)=C2C(=O)OC2CCCC2)cc1` (centres unmarked): > 10 µM; `CC1=C(C(=O)OCC(F)(F)F)C(c2ccc(Br)cc2)NC(=O)N1` (centres unmarked): > 10 µM. Take `CC1=C(C(=O)OC(C)C)C(c2cccc(Cl)c2)NC(=O)N1` (centres unmarked): the 50% inhibitory concentration (IC50) is > 10 µM. On the same count and under the same terms, to `CCN1C(=O)NC(c2ccc(Cl)cc2Cl)C(C(=O)OC)=C1C` (centres unmarked) belongs > 10 µM; to `COC(=O)C1=C(C)N(C)C(=O)NC1c1ccccc1C` (centres unmarked), > 10 µM. For the molecule `C=CCOC(=O)C1=C(C)NC(=O)NC1c1ccc(N(CC)CC)cc1` (centres unmarked), the IC50 is > 10 µM. Regarding `COC(=O)C1=C(C)NC(=O)NC1c1ccc(F)c(Br)c1` (centres unmarked), the IC50 was > 10 µM. For `CC1=C(C(=O)Nc2ccccc2)C(c2ccc(Br)cc2)NC(=S)N1` (centres unmarked), the IC50 is > 10 µM.

The same assay, now with this note: Table 2; read-out: hTRPA1 Fluor IC50.
For `COC(=O)c1ccc(C)c(NC(=O)Cn2cnc3c2c(=O)n(C)c(=O)n3C)c1` [Compound 346], the IC50 is ≥ 30 µM. Regarding `Cn1c(=O)c2c(ncn2CC(=O)Nc2cccnc2)n(C)c1=O` [Compound 367], the concentration for half-maximal inhibition (IC50) was > 10 µM.

With `Cn1c(=O)c2c(ncn2CC(=O)NCc2ccc(F)cc2)n(C)c1=O` [Compound 238], the IC50 was > 10 µM. As to `CCC(C)(C)NC(=O)Cn1cnc2c1c(=O)n(C)c(=O)n2C` [Compound 382], the IC50 was > 10 µM. For `CC(=O)c1cccc(NC(=O)Cn2cnc3c2c(=O)n(C)c(=O)n3C)c1` [Compound 380], the IC50 was > 10 µM.

For the molecule `Cc1ccc(Cl)cc1NC(=O)Cn1cnc2c1c(=O)n(C)c(=O)n2C` [Compound 374], the half-maximal inhibitory concentration (IC50) was ≥ 20 µM.

For the molecule `Cn1c(=O)c2c(ncn2CC(=O)NCCOC(=O)c2ccc(Cl)cc2)n(C)c1=O` [Compound 256], the IC50 was > 10 µM.

Turning to `Cn1c(=O)c2c(ncn2CC(=O)Nc2ccccc2Cl)n(C)c1=O` [Compound 221], the IC50 was > 10 µM.

For `COC(=O)C(CC(C)C)NC(=O)Cn1cnc2c1c(=O)n(C)c(=O)n2C` (centres unmarked) [Compound 378], the IC50 is > 10 µM. On the same count and under the same terms, next, `CCc1cccc(C)c1NC(=O)Cn1cnc2c1c(=O)n(C)c(=O)n2C` [Compound 359]: > 10 µM. With `Cn1c(=O)c2c(ncn2CC(=O)NCc2ccncc2)n(C)c1=O` [Compound 242], the IC50 was > 10 µM. On to `COC(=O)c1ccc(NC(=O)Cn2cnc3c2c(=O)n(C)c(=O)n3C)cc1` [Compound 363], for which the concentration for half-maximal inhibition (IC50) is ≤ 10 µM. On to `Cn1c(=O)c2c(ncn2CC(=O)Nc2ncc(Cl)cc2Cl)n(C)c1=O` [Compound 341], for which the IC50 was > 10 µM. Turning to `Cc1nc(-c2ccc(CCNC(=O)Cn3cnc4c3c(=O)n(C)c(=O)n4C)cc2)cs1` [Compound 353], the 50% inhibitory concentration (IC50) was ≤ 5 µM.

As to `Cn1c(=O)c2c(ncn2CC(=O)NCCc2c[nH]c3ccccc23)n(C)c1=O` [Compound 335], the IC50 was > 10 µM.

In the case of `Cc1cc(NC(=O)Cn2cnc3c2c(=O)n(C)c(=O)n3C)n(-c2ccccc2)n1` [Compound 255], the IC50 is ≥ 20 µM. Turning to `Cc1ccc(NC(=O)Cn2cnc3c2c(=O)n(C)c(=O)n3C)c([N+](=O)[O-])c1` [Compound 222], the IC50 is > 10 µM. Take `CC(C)C(NC(=O)Cn1cnc2c1c(=O)n(C)c(=O)n2C)c1ccc2c(c1)OCCCO2` (centres unmarked) [Compound 345]: the half-inhibitory concentration (IC50) was > 10 µM. Take `CC(C(=O)Nc1ccc(F)cc1)n1cnc2c1c(=O)n(C)c(=O)n2C` (centres unmarked) [Compound 327]: the IC50 is > 10 µM. For `Cn1c(=O)c2c(ncn2CC(=O)NCCOc2ccc(C(C)(C)C)cc2)n(C)c1=O` [Compound 320], the IC50 was ≤ 10 µM. The same measure, in the same setting: to `Cn1c(=O)c2c(ncn2CC(=O)Nc2ccccc2N2CCOCC2)n(C)c1=O` [Compound 248] belongs > 10 µM; to `Cn1c(=O)c2c(ncn2CC(=O)Nc2ccc(F)c(F)c2)n(C)c1=O` [Compound 245], ≤ 10 µM. In the case of `CC(C)C(C)NC(=O)Cn1cnc2c1c(=O)n(C)c(=O)n2C` (centres unmarked) [Compound 332], the IC50 is > 10 µM.

As to `CCNC(=O)Cn1cnc2c1c(=O)n(C)c(=O)n2C` [Compound 216], the IC50 was > 10 µM. In the case of `Cn1c(=O)c2c(ncn2CC(=O)NC2CCCC2)n(C)c1=O` [Compound 218], the half-maximal inhibitory concentration (IC50) is > 10 µM. Consider `Cn1c(=O)c2c(ncn2CC(=O)NCCc2ccccn2)n(C)c1=O` [Compound 241], for which the IC50 was > 10 µM. With `COc1ccccc1NC(=O)Cn1cnc2c1c(=O)n(C)c(=O)n2C` [Compound 361], the half-inhibitory concentration (IC50) is > 10 µM. With `CCN(C(=O)Cn1cnc2c1c(=O)n(C)c(=O)n2C)c1ccc(F)cc1` [Compound 291], the IC50 is ≤ 5 µM. The same measure, in the same setting: to `Cn1c(=O)c2c(ncn2CC(=O)NCC(c2ccc(F)cc2)N2CCOCC2)n(C)c1=O` (centres unmarked) [Compound 317] belongs > 10 µM; to `Cc1ccnc(NC(=O)Cn2cnc3c2c(=O)n(C)c(=O)n3C)c1` [Compound 370], > 10 µM; to `CC(NC(=O)Cn1cnc2c1c(=O)n(C)c(=O)n2C)c1ccc(-n2ccnc2)cc1` (centres unmarked) [Compound 325], ≥ 20 µM. For the molecule `CC(=O)c1ccccc1NC(=O)Cn1cnc2c1c(=O)n(C)c(=O)n2C` [Compound 309], the IC50 was > 10 µM. Turning to `CSc1cccc(NC(=O)Cn2cnc3c2c(=O)n(C)c(=O)n3C)c1` [Compound 282], the IC50 was ≤ 10 µM.

`Cc1sc(NC(=O)Cn2cnc3c2c(=O)n(C)c(=O)n3C)nc1-c1ccc(Cl)cc1` [Compound 287]: the 50% inhibitory concentration (IC50) is ≤ 10 µM.

On to `Cn1c(=O)c2c(ncn2CC(=O)NC2CCCCCCC2)n(C)c1=O` [Compound 278], for which the concentration for half-maximal inhibition (IC50) is > 10 µM.

(Values after US7671061B2, “Methods and compositions for treating pain” (Hydra Biosciences, Inc., priority 2005, dated 2010).)
